Measured values taken from publication PMC3183052, “Immunoprotectivity of HLA-A2 CTL Peptides Derived from Respiratory Syncytial Virus Fusion Protein in HLA-A2 Transgenic Mouse” (PLoS ONE, 2011).

What was measured:
HLA-A*0201 = target: T1, HLA-A*0201 (Homo sapiens, UniProt P04439, D140Y/D185E/D98H/E176V/E277Q/G131W/G231S/I119V/I121R/I166T/I218V/L300P/L318F/N151K/N90K/P208A/P217A/Q86G/Q94H/R138H/R169H/T345S); test: T2 cell-stabilization assay (T2-binding); conditions: for T2-binding Ratio of MFI: T2 cells 5×10^5, peptide 50 µg/mL + β2-microglobulin 5 µg/mL, 28°C 16–18 h, then brefeldin A 10 µg/mL 37°C 3 h, FITC anti-HLA-A2, flow cytometry, MFI relative to negative control HCV C55-74 (set as 1)
T1 construct: Human T2 cells (purchased from the American Type Culture Collection, ATCC) (ATCC No. CRL-1992) expressing the HLA-A*0201 gene; endogenous in cells; host or cells: human T2 cells (ATCC CRL-1992)
Description: T2 cells (5×10^5) cultured in 96-well U-bottom plates were incubated with the individual 9-mer synthetic peptides (50 µg/mL) and β2-microglobulin (5 µg/mL; Sigma-Aldrich) at 28°C for 16–18 hours. Subsequently, brefeldin A (10 µg/mL) was added and the cells were incubated at 37°C for another 3 hours, then washed and stained with fluorescence isothiocyanate (FITC)-conjugated mouse anti-human HLA-A2 antibody (SeroTec). Peptide-loaded T2 cells were acquired and analyzed on the FACScan flow cytometer using CellQuest software (Becton Dickinson). GLC-9 peptide was used as positive control (PC). The mean fluorescence intensity (MFI) represents the binding affinity of each peptide compared to MFI (set as MFI = 1) obtained from negative control (NC), which is T2 cells loaded with HCV peptide C55-74.
Twenty-five 9-mer synthetic peptides derived from the RSV F glycoprotein sequence presumed to encompass HLA-A*0201 binding motifs were synthesized (Table 1). Each was tested for its ability to bind HLA-A*0201 molecules by T2 cell-based binding assay (data not shown). The relative mean fluorescence intensity (MFI) obtained from the positive control (PC) peptide derived from Epstein-Barr virus capsid protein (GLC-9, a previously defined HLA-A*0201-restricted CTL epitope) was twofold (MFI = 1.96) compared to the baseline MFI = 1 obtained from the negative control (NC) treated with an unrelated peptide HCV C55-74 (a C57BL/6-specific CD4 epitope). […] The remaining peptides had no detectable binding to the HLA-A*0201 molecules. Apparently, the different MFIs generated by binding of RSV F-derived peptides to HLA-A*0201 reflects on the binding specificity of different peptides to a given HLA molecule.

[1] = test system: splenocytes from HLA-A*0201 transgenic C57BL/6 mice; test: IFN-γ ELISPOT of splenocytes restimulated with peptide; type: cell-based, mouse; conditions: for IFN-γ ELISPOT, RSV: splenocytes of HLA-Tg B6 mice primed and boosted i.n. with 10^4 pfu RSV-B1; for IFN-γ ELISPOT, RSV / IFN-γ ELISPOT, rAd-F0: restimulated with 2 µg peptide, representative of two experiments, five mice per group; for IFN-γ ELISPOT, rAd-F0: splenocytes of HLA-Tg B6 mice primed and boosted i.n. with 10^7 pfu rAd-F0; for IFN-γ level in restimulated splenocytes (ELISPOT, text grading): splenocytes of rAd-F0- or RSV B1-primed and boosted HLA-Tg B6 mice, high = over 100 spots, moderate = over 50 spots
Description: (§1) To screen the immunodominance of epitopic peptide in the induction of RSV-F specific Th1/Th2 expression, HLA-A*0201 transgenic C57BL/6 mice were anesthetized with isoflurane and immunized with 1×10^7 pfu/50 µL of rAd-F0 or rAd-LacZ or 1×10^4 live RSV B1 via the intranasal (i.n.) route. Twenty days later, the mice were given booster immunization i.n. with the same dose. After 10 days of boost, mice were sacrificed and splenocytes were isolated for the cytokine ELISPOT assay. For peptide-based vaccination, transgenic mice were immunized subcutaneously (s.c.) with 50 µg of the individual synthetic peptides emulsified in 25 µL of incomplete Freund's adjuvant (IFA) (Sigma-Aldrich) and then boosted after 10 days s.c. with the same dose of the respective peptides mixed with IFA. Mice were sacrificed 7 days after the booster and splenocytes were isolated for in vitro peptide-restimulation. For challenge studies, 10^7 pfu of live RSV-B1 was administered i.n. seven days after the booster immunization with peptide vaccines. Mice were sacrificed on day 4 post-challenge and the lung tissues were collected and subjected to further analysis by flow cytometry, ELISA, CTL assay and immunohistochemistry. Mice body weight was monitored daily.
(§2) […] RBC-free splenocyte suspensions prepared from the individual mice were seeded in individual wells of 96-well filtration plates (Millipore) precoated with capturing monoclonal antibodies for murine IL-2, IL-4 or IFN-γ (0.5 µg/ well) (eBioscience) and blocked with conditioned medium (CM) for 1 hour at room temperature. The splenocytes were added with the individual RSV F 9-mer synthetic peptides (2 µg each) or GLC-9 dissolved in CM (100 µL). The splenocytes added with Con A (10 µg/mL) were used as positive control. Unstimulated splenocytes were used as negative control. The plates were kept in a 37°C incubator equilibrated with 5% CO2 for 48 hours. The individual wells of the ELISPOT plates were washed three times with washing buffer (0.05% tween20 in PBS, PBS-T), and then 0.2 µg of the corresponding biotinylated detection monoclonal antibodies specific for IL-2, IL-4 and IFN-γ were added to detect the respective cytokines. After 2 hours of incubation at room temperature, the plates were washed and 100 µl of streptavidin-alkaline phosphatase (1∶ 250 dilution) was added to the individual wells, and the plates were incubated at room temperature for 45 minutes. Finally, the plates were washed four times with the wash buffer, and 100 µl of AEC (3-amine-9-ethylcarbazole, Sigma-Aldrich) substrate was added to each well and allowed to react for 30 minutes at room temperature in the dark. The plates were then washed with water, air-dried overnight, and the spots per well were scored using the immunospot counting reader (C.T.L. IMMUNOSPOT, CELLULAR TECHNOLOGY LTD). Results were expressed as the number of cytokine-secreting cells per 5×10^5 splenocytes seeded in the initial culture.
(§3) Figure 1 Induction of IFN-γ and IL-2 in splenocytes from RSV F peptide immunized HLA-A*0201 transgenic mice upon secondary recall. Splenocytes harvested on day 30 from HLA-A-Tg B6 mice primed and boosted at 20 days interval intranasally with 10^7 pfu of rAd-F0 (□) or 10^4 pfu of RSV-B1 (▪)were restimulated with 2 µg of the individual RSV F peptide or 10 µg/ml Con A for 5 days in the presence of murine IL-2 . After stimulation, 5×10^5 splenocytes were seeded to anti-IFN-γ (A) or anti-IL-2 (B) capture antibody coated ELISPOT plates for 2 days for ELISPOT assay as described in Materials and Methods. Cytokine-positive immunospots were developed and the results are expressed as the number of immunospots +/−2 standard deviations for each experimental group. Data is representative of results derived from two independent experiments, each with five mice per group.

splenocytic CD4+ T cells = test: CFSE proliferation of CD4+ T cells after in vitro peptide restimulation; type: cell-based, mouse; conditions: mice immunized s.c. twice with 50 µg peptide in IFA; splenocytes restimulated with 10 µg/mL peptide for 8 days
Description: (§4) To screen the immunodominance of epitopic peptide in the induction of RSV-F specific Th1/Th2 expression, HLA-A*0201 transgenic C57BL/6 mice were anesthetized with isoflurane and immunized with 1×10^7 pfu/50 µL of rAd-F0 or rAd-LacZ or 1×10^4 live RSV B1 via the intranasal (i.n.) route. Twenty days later, the mice were given booster immunization i.n. with the same dose. After 10 days of boost, mice were sacrificed and splenocytes were isolated for the cytokine ELISPOT assay. […] Mice body weight was monitored daily.
(§5) The splenocytes were isolated, labeled with 5-(6)-carboxyfluorescein diacetate succinimidyl ester (CFSE) (Sigma-Aldrich) and stimulated in vitro with 10 µg/mL of the synthetic peptides for 4 or 8 days. Proliferation of splenocytic CD4^+ and CD8^+ T cells was analyzed by flow cytometry (BD FACSCalibur) using PE-Cy5-labeled specific antibody against CD4 (eBioscience) or CD8 (eBioscience), respectively. Cell division index (CDI), a ratio of CFSE-diluted CD4^+ or CD8^+ T cells stimulated by peptide to CFSE-diluted unstimulated CD4^+ or CD8^+ T cells, was calculated as shown below; [drawing 1] […]
(§6) Figure 2 Epitope-specific CD4^+ and CD8^+ T-cell activation in peptide-immunized HLA-A*0201 transgenic mice. […] Proliferation of CD4^+ (A) or CD8^+ (B) lymphocytes in response to the different CD8 epitopes was analyzed by flow cytometry using anti-CD4 or CD8 antibodies conjugated with PE-Cy5. […]

splenocytic CD8+ T cells = test: CFSE proliferation of CD8+ T cells after in vitro peptide restimulation; type: cell-based, mouse; conditions: mice immunized s.c. twice with 50 µg peptide in IFA; splenocytes restimulated with 10 µg/mL peptide for 8 days
Description: as §4, §5, §6

[2] = test system: splenocytes from HLA-A*0201 transgenic C57BL/6 mice; test: IL-2 ELISPOT of splenocytes restimulated with peptide; type: cell-based, mouse; conditions: for IL-2 ELISPOT, RSV: splenocytes of HLA-Tg B6 mice primed and boosted i.n. with 10^4 pfu RSV-B1; for IL-2 ELISPOT, RSV / IL-2 ELISPOT, rAd-F0: restimulated with 2 µg peptide, representative of two experiments, five mice per group; for IL-2 ELISPOT, rAd-F0: splenocytes of HLA-Tg B6 mice primed and boosted i.n. with 10^7 pfu rAd-F0
Description: as §1, §2, §3

Sequence	T2-binding Ratio of MFI (HLA-A*0201)	IFN-γ ELISPOT, RSV [1]	IFN-γ ELISPOT, rAd-F0 [1]	proliferation of CD4+ T cells (cell division index) (splenocytic CD4+ T cells)	proliferation of CD8+ T cells (cell division index) (splenocytic CD8+ T cells)	IL-2 ELISPOT, RSV [2]	IL-2 ELISPOT, rAd-F0 [2]	IFN-γ level in restimulated splenocytes (ELISPOT, text grading) [1]	binding affinity, MFI higher than the baseline (HLA-A*0201; T2 cell-based binding assay, baseline = negative control HCV C55-74, called modest binding affinity) [%]	IL-2 level in restimulated splenocytes (ELISPOT, text grading) ([2]; splenocytes of rAd-F0- or RSV B1-primed and boosted HLA-Tg B6 mice, high = over 100 spots, moderate = over 50 spots)
KIMTSKTDV [peptide 17, HLA-A*0201-restricted 9-mer synthetic peptide from F protein of RSV-B1 strain]	0.95	2.5 cytokine-secreting cells per 5×10^5 splenocytes	24.5 cytokine-secreting cells per 5×10^5 splenocytes	insignificant proliferation	could not induce proliferation	6.5 cytokine-secreting cells per 5×10^5 splenocytes	24.5 cytokine-secreting cells per 5×10^5 splenocytes			
LLWVLLLWV [peptide 2, HLA-A*0201-restricted 9-mer synthetic peptide from F protein of RSV-B1 strain]	0.97	46.5 cytokine-secreting cells per 5×10^5 splenocytes	46.5 cytokine-secreting cells per 5×10^5 splenocytes			42 cytokine-secreting cells per 5×10^5 splenocytes	34.5 cytokine-secreting cells per 5×10^5 splenocytes	over 50 spots		
TLLLWVLLL [peptide 1, HLA-A*0201-restricted 9-mer synthetic peptide from F protein of RSV-B1 strain]	1.19	69.5 cytokine-secreting cells per 5×10^5 splenocytes	33.5 cytokine-secreting cells per 5×10^5 splenocytes			39.5 cytokine-secreting cells per 5×10^5 splenocytes	85.5 cytokine-secreting cells per 5×10^5 splenocytes	over 50 spots	~10	over 50 spots
